From patent US11274083B2, “Substituted thiophenyl uracils, salts thereof and the use thereof as herbicidal agents” (Syngenta Crop Protection AG, priority 2017, dated 2022)

Key:
Assay type in all cases: in vivo
Matricaria inodora [1] = experiment: Herbicidal action pre-emergence, greenhouse pot test
Description: Seeds of mono- and dicotyledonous weeds and crop plants were laid out in plastic or organic plant pots and covered with soil. The compounds of the invention formulated in the form of wettable powders (WP) or as emulsion concentrates (EC) were then applied to the surface of the covering soil as an aqueous suspension or emulsion with addition of 0.5% additive at a water application rate equivalent to 600 L/ha. After the treatment, the pots were placed in a greenhouse and kept under good growth conditions for the test plants. After about 3 weeks, the efficacy of the preparations was scored visually as a percentage by comparison with untreated controls. For example, 100% efficacy=plants have died. 0% efficacy=like control plants. Tables B1 to B17 below show the efficacies of selected compounds of the general formula (I) […] aforementioned trial method.

Oryza sativa = experiment: Crop compatibility post-emergence, greenhouse pot test
Outline: (§1)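 Sandy loam pots, greenhouse; one-leaf stage, 2–3 wk post-sowing; WP or EC, aq. spray on green parts, 0.5% additive, 600 L/ha; ~3 wk; visual score % vs untreated (0 = control-like, 100 = dead).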

Triticum aestivum = experiment: as above; details: application rate 20 g/ha
Outline: as §1

Viola tricolor [2] = experiment: Herbicidal action post-emergence, greenhouse pot test
Outline: (§2)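 Spray application onto green parts at one-leaf stage, ≤80 g/ha, 600 L/ha water, 0.5% additive. Visual rating ~3 weeks later, 0–100% vs untreated controls.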

Setaria viridis [3] = experiment: as above
Outline: as §2

Amaranthus retroflexus [4] = experiment: as above
Outline: as §2

Abutilon theophrasti [5] = experiment: as above
Outline: as §2

Stellaria media [6] = experiment: as above
Outline: as §2

Matricaria inodora [7] = experiment: as above
Outline: as §2

Polygonum convolvulus [8] = experiment: as above
Outline: as §2

Pharbitis purpurea [9] = experiment: as above
Outline: as §2

Echinochloa crus-galli [10] = experiment: as above
Outline: as §2

Veronica persica [11] = experiment: as above
Outline: as §2

Viola tricolor [12] = experiment: Herbicidal action pre-emergence, greenhouse pot test
Outline: (§3)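 In this greenhouse test, spray went onto the soil before weed emergence at application rates up to 320 g/ha. Efficacy was rated by eye as a percentage of the untreated control roughly three weeks later.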

Setaria viridis [13] = experiment: as above
Outline: as §3

Amaranthus retroflexus [14] = experiment: as above
Outline: as §3

Abutilon theophrasti [15] = experiment: as above
Outline: as §3

Avena fatua = experiment: as above; details: application rate 320 g/ha
Outline: as §3

Stellaria media [16] = experiment: as above
Outline: as §3

Polygonum convolvulus [17] = experiment: as above
Outline: as §3

Pharbitis purpurea [18] = experiment: as above
Outline: as §3

Echinochloa crus-galli [19] = experiment: as above; details: application rate 320 g/ha
Outline: as §3

Veronica persica [20] = experiment: as above
Outline: as §3

Hordeum murinum = experiment: as above; details: application rate 320 g/ha
Outline: as §3

Cyperus esculentus = experiment: as above; details: application rate 320 g/ha
Outline: as §3

Zea mays = experiment: Crop compatibility post-emergence, greenhouse pot test; details: application rate 20 g/ha
Outline: as §1

Alopecurus myosuroides [21] = experiment: Herbicidal action post-emergence, greenhouse pot test; details: application rate 80 g/ha, scored visually after about 3 weeks vs untreated controls
Outline: as §2

Lolium rigidum [22] = experiment: as above; details: application rate 80 g/ha
Outline: as §2

Alopecurus myosuroides [23] = experiment: Herbicidal action pre-emergence, greenhouse pot test; details: application rate 320 g/ha
Outline: as §3

Lolium rigidum [24] = experiment: as above; details: application rate 320 g/ha
Outline: as §3

Structure (SMILES)	Matricaria inodora (Efficacy in %) (Matricaria inodora [1]; application rate 80 g/ha) [%]	Oryza sativa (Efficacy in %) (Oryza sativa; application rate 20 g/ha) [%]	Triticum aestivum (Efficacy in %) (Triticum aestivum) [%]	Matricaria inodora (Efficacy in %) (Matricaria inodora [7]; application rate 80 g/ha) [%]	Polygonum convolvulus (Efficacy in %) (Polygonum convolvulus [8]; application rate 80 g/ha) [%]	Echinochloa crus-galli (Efficacy in %) (Echinochloa crus-galli [10]; application rate 80 g/ha) [%]	Veronica persica (Efficacy in %) (Veronica persica [11]; application rate 80 g/ha) [%]	Viola tricolor (Efficacy in %) (Viola tricolor [12]; application rate 80 g/ha) [%]	Setaria viridis (Efficacy in %) (Setaria viridis [13]; application rate 80 g/ha) [%]	Abutilon theophrasti (Efficacy in %) (Abutilon theophrasti [15]; application rate 80 g/ha) [%]	Avena fatua (Efficacy in %) (Avena fatua) [%]	Stellaria media (Efficacy in %) (Stellaria media [16]; application rate 80 g/ha) [%]	Polygonum convolvulus (Efficacy in %) (Polygonum convolvulus [17]; application rate 80 g/ha) [%]	Pharbitis purpurea (Efficacy in %) (Pharbitis purpurea [18]; application rate 320 g/ha) [%]	Echinochloa crus-galli (Efficacy in %) (Echinochloa crus-galli [19]) [%]	Hordeum murinum (Efficacy in %) (Hordeum murinum) [%]	Cyperus esculentus (Efficacy in %) (Cyperus esculentus) [%]	Lolium rigidum (Efficacy in %) (Lolium rigidum [22]) [%]	Alopecurus myosuroides (Efficacy in %) (Alopecurus myosuroides [23]) [%]	Lolium rigidum (Efficacy in %) (Lolium rigidum [24]) [%]	other results
COC(=O)C(C)OC(=O)C(C)Sc1cc(-n2c(=O)cc(C(F)(F)F)n(C)c2=O)c(F)cc1Cl (centres unmarked) [I.1-72]	100	10	20	100	100	100	100	100	100	100	90	100	100	100	100	80	100				Viola tricolor (Efficacy in %) (Viola tricolor [2]; application rate 80 g/ha): 100%; Setaria viridis (Efficacy in %) (Setaria viridis [3]; application rate 20 g/ha): 100%; Amaranthus retroflexus (Efficacy in %) (Amaranthus retroflexus [4]; application rate 20 g/ha): 100%; Abutilon theophrasti (Efficacy in %) (Abutilon theophrasti [5]; application rate 20 g/ha): 100%; Stellaria media (Efficacy in %) (Stellaria media [6]; application rate 80 g/ha): 100%; Pharbitis purpurea (Efficacy in %) (Pharbitis purpurea [9]; application rate 20 g/ha): 100%; Amaranthus retroflexus (Efficacy in %) (Amaranthus retroflexus [14]; application rate 20 g/ha): 100%; Veronica persica (Efficacy in %) (Veronica persica [20]; application rate 80 g/ha): 100%
CCNC(=O)COC(=O)C(C)Sc1cc(-n2c(=O)cc(C(F)(F)F)n(C)c2=O)c(F)cc1Cl (centres unmarked) [I.1-183]		20		100	100	100					90			100	100	90	80	100	90	90	Matricaria inodora (Efficacy in %) (Matricaria inodora [1]; application rate 320 g/ha): 100%; Zea mays (Efficacy in %) (Zea mays): 10%; Viola tricolor (Efficacy in %) (Viola tricolor [2]; application rate 20 g/ha): 100%; Alopecurus myosuroides (Efficacy in %) (Alopecurus myosuroides [21]): 80%; Setaria viridis (Efficacy in %) (Setaria viridis [3]; application rate 80 g/ha): 100%; Amaranthus retroflexus (Efficacy in %) (Amaranthus retroflexus [4]; application rate 80 g/ha): 100%; Abutilon theophrasti (Efficacy in %) (Abutilon theophrasti [5]; application rate 80 g/ha): 100%; Stellaria media (Efficacy in %) (Stellaria media [6]; application rate 20 g/ha): 100%; Pharbitis purpurea (Efficacy in %) (Pharbitis purpurea [9]; application rate 80 g/ha): 100%; Veronica persica (Efficacy in %) (Veronica persica [11]; application rate 20 g/ha): 100%; Viola tricolor (Efficacy in %) (Viola tricolor [12]; application rate 320 g/ha): 100%; Setaria viridis (Efficacy in %) (Setaria viridis [13]; application rate 320 g/ha): 100%; Amaranthus retroflexus (Efficacy in %) (Amaranthus retroflexus [14]; application rate 80 g/ha): 100%; Abutilon theophrasti (Efficacy in %) (Abutilon theophrasti [15]; application rate 320 g/ha): 100%; Stellaria media (Efficacy in %) (Stellaria media [16]; application rate 320 g/ha): 100%; Polygonum convolvulus (Efficacy in %) (Polygonum convolvulus [17]; application rate 320 g/ha): 100%; Veronica persica (Efficacy in %) (Veronica persica [20]; application rate 320 g/ha): 100%
COC(=O)CC(C)OC(=O)C(C)Sc1cc(-n2c(=O)cc(C(F)(F)F)n(C)c2=O)c(F)cc1Cl (centres unmarked) [I.1-22]	100		20	100	100	100	100	100	100	100		100	100	100	100	100	90	90	80	100	Oryza sativa (Efficacy in %) (Oryza sativa; application rate 5 g/ha): 0%; Viola tricolor (Efficacy in %) (Viola tricolor [2]; application rate 80 g/ha): 100%; Alopecurus myosuroides (Efficacy in %) (Alopecurus myosuroides [21]): 80%; Setaria viridis (Efficacy in %) (Setaria viridis [3]; application rate 80 g/ha): 100%; Amaranthus retroflexus (Efficacy in %) (Amaranthus retroflexus [4]; application rate 80 g/ha): 100%; Abutilon theophrasti (Efficacy in %) (Abutilon theophrasti [5]; application rate 80 g/ha): 100%; Stellaria media (Efficacy in %) (Stellaria media [6]; application rate 80 g/ha): 100%; Pharbitis purpurea (Efficacy in %) (Pharbitis purpurea [9]; application rate 80 g/ha): 100%; Amaranthus retroflexus (Efficacy in %) (Amaranthus retroflexus [14]; application rate 80 g/ha): 100%; Veronica persica (Efficacy in %) (Veronica persica [20]; application rate 320 g/ha): 100%
COC(=O)COC(=O)C(C)Sc1cc(-n2c(=O)cc(C(F)(F)F)n(C)c2=O)c(F)cc1Cl (centres unmarked) [I.1-42]	100	10	20				100	100	100	100	90	100	100		100	100	100	90	90	100	Viola tricolor (Efficacy in %) (Viola tricolor [2]; application rate 20 g/ha): 100%; Setaria viridis (Efficacy in %) (Setaria viridis [3]; application rate 20 g/ha): 100%; Amaranthus retroflexus (Efficacy in %) (Amaranthus retroflexus [4]; application rate 20 g/ha): 100%; Abutilon theophrasti (Efficacy in %) (Abutilon theophrasti [5]; application rate 20 g/ha): 100%; Stellaria media (Efficacy in %) (Stellaria media [6]; application rate 20 g/ha): 100%; Matricaria inodora (Efficacy in %) (Matricaria inodora [7]; application rate 20 g/ha): 100%; Polygonum convolvulus (Efficacy in %) (Polygonum convolvulus [8]; application rate 20 g/ha): 100%; Pharbitis purpurea (Efficacy in %) (Pharbitis purpurea [9]; application rate 20 g/ha): 100%; Echinochloa crus-galli (Efficacy in %) (Echinochloa crus-galli [10]; application rate 20 g/ha): 100%; Amaranthus retroflexus (Efficacy in %) (Amaranthus retroflexus [14]; application rate 20 g/ha): 100%; Pharbitis purpurea (Efficacy in %) (Pharbitis purpurea [18]; application rate 80 g/ha): 100%; Veronica persica (Efficacy in %) (Veronica persica [20]; application rate 80 g/ha): 100%
